# Source: patent publication US20070243548A1, “Calumenin-directed diagnostics and therapeutics for cancer and chemotherapeutic drug resistance” (priority 2006, published 2007)
# How the values were obtained:
# MCF-7 cells = test: Apoptosis assay (Annexin V staining); type: cell-based, human; conditions: FIG. 4
# Procedure: This assay was performed to determine the number of cells that were susceptible to chemotherapeutic drugs following incubation with siRNAs. Cells transfected with siRNA were seeded in Lab-Tek 16-well chamber slides (Electron Microscopy Sciences, Hatfield, Pa.) at 10^4 cells/well 48 hrs post-transfection. Apoptosis was determined 16 hours later by annexin-V staining using the Annexin-V FLUOS kit (Roche, Ltd., Basel, CH) following the manufacturer's instructions. Slides were observed under a fluorescence microscope and images were taken using an Olympus digital camera and the Q-Capture software (QImaging, Burnaby, BC, CA).
# [1] = tested on: hematological tumor cells; test: Hematological tumors in MHC-matched mice; type: in vivo
# Procedure: In order to determine whether targeting calumenin is useful in treating a preexisting cancerous condition, MHC-matched mice, 5 to 7 weeks old, receive a subcutaneous (s.c.) injection of 5×10^5 hematological tumor cells, and tumors are allowed to form. Tumor growth starting on the first day of treatment is measured by palpitation, and the volume of the xenograft is monitored every 4 days. Tumors are allowed to grow to a sufficient size (5.5 mm) for appropriate analysis of the effects of calumenin treatment on tumor sensitivity to chemotherapeutic drugs. Mice are then treated with a calumenin siRNA (3 μg daily for 16 days) designed to decrease the level of expression of calumenin. Control mice receive no treatment, treatment with taxol or doxorubicin alone (4 mg/kg daily) or treatment with control siRNA sequences that are not complementary to murine calumenin mRNA (3 μg daily for 16 days for each treatment) in combination with taxol or doxorubicin (4 mg/kg daily). Taxol and doxorubicin can be obtained commercially from Sigma Corp. (St. Louis, Mo.).
# The animal's weight is measured every 4 days. Tumor growth starting on the first day of treatment is measured by palpitation and the volume of the xenograft is monitored every 4 days. The mice are anaesthetized and sacrificed when the mean tumor weight is over 1 g in the control group. Tumor tissue is excised from the mice and its weight is measured. Tumor weights from mice treated with the calumenin siRNA and chemotherapeutic drugs are compared to tumor weights from mice treated with control siRNA and chemotherapeutic drugs. Tumor cell count is determined by trypsinizing tumors in DMEM medium supplemented with 10% fetal bovine serum until cells are in free suspension. Cells are then transferred to 6-well plates for counting. Cell counts are compared. All experiments are performed in triplicate.
# In order to determine whether targeting calumenin is useful in treating a preexisting cancerous condition, MHC-matched mice, 5 to 7 weeks old, receive an s.c. injection of 5×10^5 hematological tumor cells, and tumors are allowed to form. Tumor growth starting on the first day of treatment is measured by palpitation and the volume of the xenograft is monitored every 4 days. Tumors are allowed to grow to a sufficient size (5.5 mm) for appropriate analysis of the effects of calumenin treatment on tumor sensitivity to chemotherapeutic drugs. […]
# The animal's weight is measured every 4 days. Tumor growth starting on the first day of treatment is measured and the volume of the xenograft is monitored every 4 days. […] Tumor tissue is excised from the mice and its weight is measured. […] Tumor cell count is determined by trypsinizing tumors in DMEM medium supplemented with 10% fetal bovine serum until cells are in free suspension. […]
# calumenin = test: Immunoblot of calumenin expression after siRNA transfection of MCF-7 cells; type: cell-based, human; conditions: compared to mock and control siRNA, FIG. 2
# Excerpt: To establish the importance of calumenin to the expression of the drug-resistant phenotype in MCF-7 cell lines, calumenin expression was silenced using RNAi. Briefly, the following siRNA duplexes targeting the human calumenin mRNA were designed and purchased either from Ambion (Austin, Tex.) or Invitrogen (Carlsbad, Calif.). The siRNA duplex sequences corresponding to nucleotides […] (REFSEQ ID NUMBER: NM_001428) targeting the start of the calumenin mRNA transcript were:
# For a typical siRNA transfection, […] of the annealed siRNA duplex was mixed with 1.4 ml of Opti-MEM reagent (Invitrogen). In another tube, […] of Oligofectamine reagent (Invitrogen, Carlsbad, Calif.) was mixed with […] of Opti-MEM. The two solutions were combined and mixed gently by inversion and incubated for 20 min. at RT. […]
# To determine the ability of cells to proliferate after they were transfected with […] or control siRNAs as indicated above, the cells were seeded the next day in a 96-well plate at 5×10^3 cells/well in quadruplicate. […] The resulting fluorescence was measured in a Wallac microplate reader (PerkinElmer, Inc., Boston, Mass.) using a 535 nm filter. […] The number of cells was determined by extrapolation from a standard curve.
substance,measurement,setting,value
"Calumenin siRNA: siRNA duplex targeting human calumenin mRNA; sense 5′-GAAGGACCGUGUACAUCAU-3′ (SEQ ID NO: 1), anti-sense 5′-AUGAUGUACACGGUCCUUC-3′ (SEQ ID NO: 2), 3′TT overhangs (3' TT overhangs on both strands, further chemistry not given here)",number of Annexin-V-positive cells,MCF-7 cells; compared to cell population treated with control siRNA,substantially greater number
same,cell survival,MCF-7 cells; compared to cells treated with siGLO control siRNA,decreased
same,"prognosis (i.e., smaller tumor or fewer tumor cells)",[1]; composition vs only the targeting agent or only the chemotherapeutic drug,better prognosis
same,total cell number in tumors,"[1]; hematological cancers, vs mice treated with control siRNA",lower
same,tumors by weight,"[1]; hematological cancers, vs mice treated with control siRNA, 3 μg siRNA daily for 16 days",smaller
same,sensitivity of tumors to chemotherapeutic drug treatment regimes,[1]; hematological tumors in mice,increases
same,calumenin expression,calumenin,significantly decreased
